# Data reported in patent publication US10689377B2 (Mirati Therapeutics, Inc., priority 2017, dated 2020).
# Molecular target: KRas G12C (Homo sapiens, UniProt P01116, G12C)
# Test: Cellular inhibition of KRas G12C measured by Phospho-ERK in NCI-H358 cells
# Format: cell-based
# Conditions: pERK(Thr202/Tyr204) normalized with GAPDH, NCI-H358 cells, 3 hours; read-out: IC50
# How it was run: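 NCI-H358 cells treated 3 h with compound (0.5% DMSO final), then fixed and methanol-permeabilised. In-cell immunofluorescence measured pERK(Thr202/Tyr204) normalised to GAPDH as percent of DMSO control. IC50 from a 4-parameter dose-response fit.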
# Chain of KRas G12C (P01116 1-188 isoform P01116-2 G12C): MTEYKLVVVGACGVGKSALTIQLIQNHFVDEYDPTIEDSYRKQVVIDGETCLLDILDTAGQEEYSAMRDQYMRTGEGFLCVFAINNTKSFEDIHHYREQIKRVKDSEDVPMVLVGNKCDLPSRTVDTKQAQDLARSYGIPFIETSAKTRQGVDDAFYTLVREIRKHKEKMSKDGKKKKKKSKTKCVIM
row,Compound,IC50 [nM]
1,"C=CC(=O)N1CCN(c2nc(OC[C@@H]3[C@@H](O)CCN3C)nc3c2CCN(c2cccc4ccccc24)C3)C[C@@H]1CC#N [Example 390, 2-((S)-1-acryloyl-4-(2-(((2R,3S)-3-hydroxy-1-methylpyrrolidin-2-yl)methoxy)-7-(naphthalen-1-yl)-5,6,7,8-tetrahydropyrido[3,4-d]pyrimidin-4-yl)piperazin-2-yl)acetonitrile]",0.1 to 1000
2,"C=CC(=O)N1CCN(c2nc(O[C@H](C)CN(C)C)nc3c2CCN(c2cc(O)ccc2C(F)(F)F)C3)CC1 [Example 79, (R)-1-(4-(2-((1-(dimethylamino)propan-2-yl)oxy)-7-(5-hydroxy-2-(trifluoromethyl)phenyl)-5,6,7,8-tetrahydropyrido[3,4-d]pyrimidin-4-yl)piperazin-1-yl)prop-2-en-1-one]",> 1000
3,"C=CC(=O)N1CCN(c2nc(OCCN3CC(F)(F)C3)nc3c2CCN(c2cc(O)cc4ccccc24)C3)CC1 [Example 138, 1-[4-[2-[2-(3,3-difluoroazetidin-1-yl)ethoxy]-7-(3-hydroxy-1-naphthyl)-6,8-dihydro-5H-pyrido[3,4-d]pyrimidin-4-yl]piperazin-1-yl]prop-2-en-1-one]",> 1000
4,"C=CC(=O)N1CCN(c2nc(OC[C@H]3CCCN3C)nc3c2CCN(c2cccc(F)c2C(F)(F)F)C3)C[C@@H]1CC#N [Example 274, 2-((S)-1-acryloyl-4-(7-(3-fluoro-2-(trifluoromethyl)phenyl)-2-(((R)-1-methylpyrrolidin-2-yl)methoxy)-5,6,7,8-tetrahydropyrido[3,4-d]pyrimidin-4-yl)piperazin-2-yl)acetonitrile]",0.1 to 1000

# Second part, the compound after the results:
row,IC50 [nM],Compound
1,0.1 to 1000,"C=CC(=O)N1CCN(c2nc(OC[C@@H]3C[C@@H](F)CN3C)nc3c2CCN(c2cncc(F)c2C(F)(F)F)C3)C[C@@H]1CC#N [Example 384, 2-((S)-1-acryloyl-4-(2-(((2S,4R)-4-fluoro-1-methylpyrrolidin-2-yl)methoxy)-7-(5-fluoro-4-(trifluoromethyl)pyridin-3-yl)-5,6,7,8-tetrahydropyrido[3,4-d]pyrimidin-4-yl)piperazin-2-yl)acetonitrile]"
2,0.1 to 1000,"C=CC(=O)N1CCN(c2nc(OC[C@H]3CCCN3CC)nc3c2CCN(c2cccc4ccccc24)C3)C[C@@H]1CC#N [Example 334, 2-[(2S)-4-[2-[[(2R)-1-ethylpyrrolidin-2-yl]methoxy]-7-(1-naphthyl)-6,8-dihydro-5H-pyrido[3,4-d]pyrimidin-4-yl]-1-prop-2-enoyl-piperazin-2-yl]acetonitrile]"
3,> 1000,"C/C=C/C(=O)N1CCN(c2nc(OC[C@@H]3CCCN3C)nc3c2CCN(c2cc(O)cc4ccccc24)C3)CC1 [Example 198, (S,E)-1-(4-(7-(3-hydroxynaphthalen-1-yl)-2-((1-methylpyrrolidin-2-yl)methoxy)-5,6,7,8-tetrahydropyrido[3,4-d]pyrimidin-4-yl)piperazin-1-yl)but-2-en-1-one]"
4,> 1000,"C=CC(=O)N1CCN(c2nc(OCCCO)nc3c2CCN(c2cc(O)cc4ccccc24)C3)CC1 [Example 184, 1-[4-[7-(3-hydroxy-1-naphthyl)-2-(3-hydroxypropoxy)-6,8-dihydro-5H-pyrido[3,4-d]pyrimidin-4-yl]piperazin-1-yl]prop-2-en-1-one]"
5,0.1 to 1000,"C=CC(=O)N1CCN(c2nc(OCCCN3C[C@@H]4C[C@H]3CO4)nc3c2CCN(c2cccc4cccc(C)c24)C3)C[C@@H]1CC#N [Example 369, 2-((S)-4-(2-(3-((1S,4S)-2-oxa-5-azabicyclo[2.2.1]heptan-5-yl)propoxy)-7-(8-methylnaphthalen-1-yl)-5,6,7,8-tetrahydropyrido[3,4-d]pyrimidin-4-yl)-1-acryloylpiperazin-2-yl)acetonitrile]"
6,> 1000,"C=CC(=O)N1CCN(c2nc(OC[C@@H]3C[C@@H](F)CN3C)nc3c2CCN(c2cc(OC)cc4ccccc24)C3)CC1 [Example 355, 1-[4-[2-[[(2S,4R)-4-fluoro-1-methyl-pyrrolidin-2-yl]methoxy]-7-(3-methoxy-1-naphthyl)-6,8-dihydro-5H-pyrido[3,4-d]pyrimidin-4-yl]piperazin-1-yl]prop-2-en-1-one]"
